Values after ≈ are worked out from the molar mass of the structure shown. Active and inactive are the calls of the source. The rule behind the calls is not given here.
Columns and labels:
Chikungunya virus [1] = assay: Antiviral activity against CHIKV infected in human NHDF cells assessed as reduction in virus titer in cell supernatant by measuring inhibition of plaque formation using Vero cells at 10 uM pretreated with NHDF cells followed by infected with virus incubated for 24 hrs and measured following infection of supernatants with Vero cells for 48 hrs by plaque based methylene blue dye analysis; assay type: functional; conditions: time 72 hrs
[2] = (§1) Cytotoxicity against human NHDF cells assessed as cell viability measured after 24 hrs by Cell Titer Glo luminescent assay; assay type: cell-based; conditions: NHDF cells
[3] = target: Dihydroorotate dehydrogenase (quinone), mitochondrial (Homo sapiens, UniProt Q02127)
Chikungunya virus [4] = assay: Antiviral activity against CHIKV infected in human NHDF cells assessed as reduction in virus titer in cell supernatant by measuring inhibition of plaque formation using Vero cells pretreated with NHDF cells followed by infected with virus incubated for 24 hrs and measured following infection of supernatants with Vero cells for 48 hrs by plaque based methylene blue dye analysis; assay type: functional, organism-based
Chikungunya virus [5] = assay: Antiviral activity against CHIKV 99659 infected in Asian tiger mosquito C6/36 cells assessed as reduction in virus titer in cell supernatant by measuring inhibition of plaque formation using Vero cells and measured following infection of supernatants with Vero cells for 48 hrs pi by serial dilution plaque based methylene blue dye analysis; assay type: functional; conditions: Chikungunya virus, 99659, C6
Chikungunya virus [6] = assay: Antiviral activity against CHIKV-nLuc RNA transfected NHDF cells assessed as decrease in Nano-luc signal at 20 uM pretreated 24 hrs before transfection in presence of uridine measured after 24 hrs by Nano-Glo luciferase assay; assay type: functional, organism-based; conditions: time 48.0 hrs
West Nile virus = assay: Antiviral activity against West nile virus infected in HEK293 cells assessed as reduction in virus titer in cell supernatant by measuring inhibition of plaque formation using Vero cells at 10 uM measured following infection of supernatants with Vero cells for 48 hrs pi by serial dilution plaque based methylene blue dye analysis; assay type: functional
Una virus = assay: Antiviral activity against Una virus MAC150 infected in Asian tiger mosquito C6/36 cells assessed as reduction in virus titer in cell supernatant by measuring inhibition of plaque formation using Vero cells and measured following infection of supernatants with Vero cells for 48 hrs pi by serial dilution plaque based methylene blue dye analysis; assay type: functional
[7] = system: Venezuelan equine encephalitis virus; assay: Antiviral activity against Venezuelan equine encephalitis virus TC83 infected in human […] cells assessed as reduction in virus titer in cell supernatant by measuring inhibition of plaque formation using Vero cells at 10 uM measured following infection of supernatants with Vero cells for 48 hrs pi by serial dilution plaque based methylene blue dye analysis; assay type: functional, NHDF
Chikungunya virus [8] = assay type: functional, organism-based; conditions: 181-25, NHDF, dose 20.0 µM, time 13.0 hrs
Chikungunya virus [9] = assay: Antiviral activity against resistance mutation induced CHIKV-117 infected in […] cells assessed as viral infectivity in Vero cells at 10 uM measured up to 24 hrs of post infection by supernatant was quantified by plaque assay; assay type: functional, organism-based; conditions: time hrs <=24
dengue virus type 2 = assay: Antiviral activity against DENV2 infected in HEK293 cells assessed as reduction in virus titer in cell supernatant by measuring inhibition of plaque formation using Vero cells at 10 uM measured following infection of supernatants with Vero cells for 48 hrs pi by serial dilution plaque based methylene blue dye analysis; assay type: functional
Chikungunya virus [10] = assay: Antiviral activity against CHIKV-nLuc RNA transfected NHDF cells assessed as decrease in CHIKV RNA at 10 uM pretreated 1 hr before transfection measured after 12 hrs by Nano-Glo luciferase assay; assay type: functional, organism-based; conditions: time 13.0 hrs
Chikungunya virus [11] = assay: Antiviral activity against CHIKV infected in mouse NIH3T3 cells assessed as reduction in virus titer in cell supernatant by measuring inhibition of plaque formation using Vero cells pretreated with NIH3T3 cells followed by infected with virus incubated for 24 hrs and measured following infection of supernatants with Vero cells for 48 hrs by plaque based methylene blue dye analysis; assay type: functional; conditions: dose 10 µM
Chikungunya virus [12] = assay type: functional, organism-based; conditions: 181-25, NHDF, dose 20.0 µM, time 13.0 hrs; remark: listed apart in the source
Chikungunya virus [13] = assay: Antiviral activity against CHIKV-nLuc RNA transfected NHDF cells assessed as decrease in Nano-luc signal at 20 uM pretreated 24 hrs before transfection in presence of guanosine measured after 24 hrs by Nano-Glo luciferase assay; assay type: functional, organism-based
Mayaro virus = assay: Antiviral activity against Mayaro virus TRVL infected in Asian tiger mosquito C6/36 cells assessed as reduction in virus titer in cell supernatant by measuring inhibition of plaque formation using Vero cells and measured following infection of supernatants with Vero cells for 48 hrs pi by serial dilution plaque based methylene blue dye analysis; assay type: functional
Chikungunya virus [14] = assay: Antiviral activity against CHIKV 37997 infected in Asian tiger mosquito C6/36 cells assessed as reduction in virus titer in cell supernatant by measuring inhibition of plaque formation using Vero cells and measured following infection of supernatants with Vero cells for 48 hrs pi by serial dilution plaque based methylene blue dye analysis; assay type: functional; conditions: Chikungunya virus, 37997, C6
[15] = Cytotoxicity against HEK293 cells at 10 uM; assay type: cell-based; conditions: human
Chikungunya virus [16] = assay type: functional, organism-based; conditions: 181-25, NHDF, dose 20.0 µM, time 13.0 hrs; remark: listed apart in the source
Chikungunya virus [17] = assay: Antiviral activity against resistance mutation induced CHIKV-119 infected in […] cells assessed as viral infectivity in Vero cells at 10 uM measured up to 24 hrs of post infection by supernatant was quantified by plaque assay; assay type: functional, organism-based; conditions: time hrs <=24
[18] = Antiviral activity against Ross river virus infected in Asian tiger mosquito C6/36 cells assessed as reduction in virus titer in cell supernatant by measuring inhibition of plaque formation using Vero cells and measured following infection of supernatants with Vero cells for 48 hrs pi by serial dilution plaque based methylene blue dye analysis; assay type: functional
Chikungunya virus [19] = assay: Antiviral activity against resistance mutation induced CHIKV-117/119 infected in […] cells assessed as viral infectivity in Vero cells at 10 uM measured up to 24 hrs of post infection by supernatant was quantified by plaque assay; assay type: functional, organism-based; conditions: time hrs <=24
Chikungunya virus [20] = assay type: functional, organism-based; conditions: 181-25, NHDF, dose 20.0 µM, time 13.0 hrs; remark: listed apart in the source
Chikungunya virus [21] = assay type: functional, organism-based; conditions: 181-25, Vero, dose 10.0 µM, time 20.0 hrs
Onyong-nyong virus = assay: Antiviral activity against O'nyong-nyong virus infected in Asian tiger mosquito C6/36 cells assessed as reduction in virus titer in cell supernatant by measuring inhibition of plaque formation using Vero cells and measured following infection of supernatants with Vero cells for 48 hrs pi by serial dilution plaque based methylene blue dye analysis; assay type: functional
Chikungunya virus [22] = assay: Antiviral activity against CHIKV infected in IFN regulatory factor 3 telomerized human fibroblast cells assessed as reduction in virus titer in cell supernatant by measuring inhibition of plaque formation using Vero cells […] followed by infected with virus incubated for 24 hrs and measured following infection of supernatants with Vero cells for 48 hrs by plaque based …; assay type: functional; conditions: time 72 hrs
[23] = system: Venezuelan equine encephalitis virus; assay: Antiviral activity against Venezuelan equine encephalitis virus TC83 infected in Asian tiger mosquito C6/36 cells assessed as reduction in virus titer in cell supernatant by measuring inhibition of plaque formation using Vero cells and measured following infection of supernatants with Vero cells for 48 hrs pi by serial dilution plaque based methylene blue dye analysis; assay type: functional
Chikungunya virus [24] = assay: Antiviral activity against CHIKV LR2006-OPY1 infected in Asian tiger mosquito C6/36 cells assessed as reduction in virus titer in cell supernatant by measuring inhibition of plaque formation using Vero cells and measured following infection of supernatants with Vero cells for 48 hrs pi by serial dilution plaque based methylene blue dye analysis; assay type: functional
NHDF = assay: as §1; assay type: cell-based; conditions: nhdf, 24 h
Chikungunya virus [25] = assay type: functional; conditions: 181-25, C6, time 48 hrs
[26] = Metabolic stability in human liver microsomes assessed as half life in presence of NADPH incubated up to 45 mins by LC-MS/MS analysis; assay type: ADME, Microsome
[27] = Aqueous solubility of the compound; assay type: physicochemical
[28] = Octanol-aqueous buffer distribution coefficient, log D of the compound by LC-MS analysis; assay type: physicochemical
[29] = Metabolic stability in mouse liver microsomes assessed as half life in presence of NADPH incubated up to 45 mins by LC-MS/MS analysis; assay type: ADME, Microsome; parameters: unit not given here; conditions: liver microsomes

Sequence of Dihydroorotate dehydrogenase (quinone), mitochondrial (Q02127 whole entry): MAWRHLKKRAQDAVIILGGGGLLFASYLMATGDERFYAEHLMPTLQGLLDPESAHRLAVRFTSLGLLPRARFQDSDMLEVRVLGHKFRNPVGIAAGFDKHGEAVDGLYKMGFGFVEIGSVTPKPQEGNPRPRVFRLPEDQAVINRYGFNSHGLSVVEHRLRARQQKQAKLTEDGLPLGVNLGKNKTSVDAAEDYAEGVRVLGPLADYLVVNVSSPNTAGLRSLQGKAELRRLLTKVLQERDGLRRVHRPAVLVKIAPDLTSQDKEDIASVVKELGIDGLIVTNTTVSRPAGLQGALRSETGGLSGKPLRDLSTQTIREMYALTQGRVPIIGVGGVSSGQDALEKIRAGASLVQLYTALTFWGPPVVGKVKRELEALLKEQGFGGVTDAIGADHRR

Compound: COc1cc2c(nc1NC(=O)c1ccc(C(C)(C)C)cn1)CCCCC2
- log(activity) (Chikungunya virus [1]): 4.05
- CC50 at 24 h [2]: > 30 µM
- IC50 [3]: > 30 µM
- EC50 (Chikungunya virus [4]): 2.9 µM

Compound: COc1cc2c(cc1NC(=O)c1ccc(C(C)(C)C)cc1)CCCCC2
- EC90 (Chikungunya virus [5]): 0.78 µM
- Activity (Chikungunya virus [6]): inactive
- log(activity) (Chikungunya virus [1]): 4
- log(activity) (West Nile virus): 2
- EC90 (Una virus): 0.34 µM
- log(activity) [7]: 2.7
- inhibition (Chikungunya virus [8]): Active
- Activity (Chikungunya virus [9]): Active
- log(activity) (dengue virus type 2): 1.5
- inhibition (Chikungunya virus [10]): Active
- EC90 (Chikungunya virus [11]): 1.01 µM
- inhibition (Chikungunya virus [12]): Active
- Activity (Chikungunya virus [13]): Active
- EC90 (Mayaro virus): 0.25 µM
- EC90 (Chikungunya virus [14]): 0.18 µM
- CC50 at 24 h [2]: 78.5 µM
- IC50 [3]: 3.5 µM
- CC50 [15]: > 30 µM
- inhibition (Chikungunya virus [16]): Active
- Activity (Chikungunya virus [17]): Active
- EC90 [18]: 0.21 µM
- Activity (Chikungunya virus [19]): Active
- inhibition (Chikungunya virus [20]): Active
- inhibition (Chikungunya virus [21]): Active
- EC90 (Onyong-nyong virus): 0.18 µM
- EC90 (Chikungunya virus [22]): 4.87 µM
- EC90 [23]: 2.9 µM
- EC90 (Chikungunya virus [24]): 0.15 µM

Compound: COc1cc2c(cc1C(=O)Nc1ccc(C(C)(C)C)cn1)CCCCC2
- IC50 [3]: > 30 µM

Compound: COc1cc2c(cc1C(=O)Nc1ccc(C(C)(C)O)cc1)CCCCC2
- log(activity) (Chikungunya virus [1]): 1.6
- CC50 at 24 h [2]: > 30 µM
- IC50 [3]: 24.1 µM
- EC50 (Chikungunya virus [4]): 8 µM

Compound: COc1cc2c(cc1C(=O)Nc1cc(C(C)(C)C)[nH]n1)CCCCC2
- IC50 [3]: > 30 µM

Compound: CCOc1cc2c(cc1NC(=O)c1ccc(C(C)(C)C)cc1)CCCC2
- log(activity) (Chikungunya virus [1]): 1
- CC50 (NHDF): 3.86 µM
- EC50 (Chikungunya virus [4]): 7.78 µM

Compound: COc1cc2c(cc1C(=O)Nc1ccc(C(C)(C)C)cc1)CCCCC2
- log(activity) (Chikungunya virus [1]): 3.2
- log(activity) (West Nile virus): 1.7
- EC90 (Chikungunya virus [25]): 1.6 µM
- log(activity) (dengue virus type 2): 1.9
- CC50 at 24 h [2]: > 30 µM
- IC50 [3]: 3 µM
- half-life [26]: 99 h
- solubility ([27]; aqueous, read-out: solubility): 0.5 µM (≈ 0.176 µg/mL)
- logD [28]: 4
- EC50 (Chikungunya virus [4]): 0.48 µM
- EC90 [23]: 2.9 µM

Compound: CC(C)(C)c1ccc(NC(=O)c2cc3c(cc2O)CCCCC3)cc1
- log(activity) (Chikungunya virus [1]): 3.3
- CC50 at 24 h [2]: > 30 µM
- IC50 [3]: > 30 µM
- half-life [29]: 4680
- half-life [26]: 49 h
- solubility ([27]; aqueous, read-out: solubility): < 1 µM
- logD [28]: 4.2
- EC50 (Chikungunya virus [4]): 1.54 µM

Compound: CC(C)(C)c1ccc(NC(=O)c2ccc3c(c2)CCCCC3)cc1
- log(activity) (Chikungunya virus [1]): 4.2
- CC50 at 24 h [2]: > 30 µM
- CC50 [15]: > 30 µM
- EC50 (Chikungunya virus [4]): 7 µM

Compound: CCc1cc2c(cc1NC(=O)c1ccc(C(C)(C)C)cc1)CCCCC2
- log(activity) (Chikungunya virus [1]): 4.9
- CC50 at 24 h [2]: > 30 µM
- IC50 [3]: > 30 µM
- half-life [29]: 660
- half-life [26]: 37 h
- solubility ([27]; aqueous, read-out: solubility): < 1 µM
- logD [28]: 5
- EC50 (Chikungunya virus [4]): 1.7 µM

Compound: CC(C)(C)c1ccc(C(=O)Nc2cc3c(cc2OCc2ccccn2)CCCCC3)cc1
- log(activity) (Chikungunya virus [1]): <1
- CC50 (NHDF): 9.4 µM

Compound: CC(C)(C)c1ccc(C(=O)Nc2cc3c(cc2O)CCCCC3)cc1
- log(activity) (Chikungunya virus [1]): 3.5
- CC50 at 24 h [2]: > 30 µM
- IC50 [3]: > 30 µM
- half-life [29]: 1860
- half-life [26]: 74 h
- solubility ([27]; buffer): 1 µM (≈ 0.337 µg/mL)
- logD [28]: 5
- EC50 (Chikungunya virus [4]): 0.4 µM
